Assay results published in PubChem BioAssay AID330 (DTP/NCI, 2004).
Where “and” joins values, the source holds several entries; their conditions need not be identical. Identical values can stand only once. Toxic doses and inconclusive results are not listed. Numbered stars: 1 amine (or outer) side, 2 acyl side, 3 side chain; on linkers, the order of the positions; unused ones are H or OH. Peptide text beside a SMILES is read from it. γGlu = O=C(O)[CH](CCC(=O)[*:2])N[*:1]

System: P388 leukemia ip, CD2F1 mice, survival T/C
Assay: NCI In Vivo Anticancer Drug Screen. Data for tumor model P388 Leukemia (intraperitoneal) in CD2F1 (CDF1) mice
Conditions: endpoint: median survival time, higher = longer survival
Outline: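 Mice carrying the transplanted tumor received test compound or vehicle. Survival was recorded in each group, and the value is the treated-group measurement divided by that of the vehicle-treated control group.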

[1] = dose: 50.0 mg/kg/injection, schedule: Q01DX005 (ip), vehicle: saline with Tween-80
[2] = dose: 100.0 mg/kg/injection, schedule: Q01DX005 (ip), vehicle: saline with Tween-80
[3] = dose: 200.0 mg/kg/injection, schedule: Q01DX005 (ip), vehicle: saline with Tween-80
[4] = dose: 50.0 mg/kg/injection, schedule: Q01DX009 (ip), vehicle: saline with Tween-80
[5] = dose: 200.0 mg/kg/injection, schedule: Q01DX009 (ip), vehicle: saline with Tween-80
[6] = dose: 400.0 mg/kg/injection, schedule: Q01DX009 (ip), vehicle: saline with Tween-80
[7] = dose: 100.0 mg/kg/injection, schedule: Q01DX009 (ip), vehicle: saline with Tween-80
[8] = dose: 50.0 mg/kg/injection, schedule: Q01DX005 (ip), vehicle: Klucel (hydroxypropylcellulose) (HPC)
[9] = dose: 200.0 mg/kg/injection, schedule: Q01DX005 (ip), vehicle: Klucel (hydroxypropylcellulose) (HPC)
[10] = dose: 25.0 mg/kg/injection, schedule: Q01DX009 (ip), vehicle: saline with Tween-80
[11] = dose: 60.0 mg/kg/injection, schedule: Q01DX005 (ip), vehicle: saline with Tween-80
[12] = dose: 120.0 mg/kg/injection, schedule: Q01DX005 (ip), vehicle: saline with Tween-80
[13] = dose: 240.0 mg/kg/injection, schedule: Q01DX005 (ip), vehicle: saline with Tween-80

COc1cc(C(CC#N)CC#N)cc(OC)c1OC
T/C [1]: 96 % of control | T/C [2]: 99 % of control | T/C [3]: 97 % of control

NC(CCC(=O)NC(CCC(=O)O)C(=O)NC(CCC(=O)O)C(=O)O)C(=O)O (stereo not drawn) (γGlu-Glu-Glu-OH; configuration not given here)
T/C (dose: 50.0 mg/kg/injection, schedule: Q01DX005 (ip), vehicle: saline): 98 % of control | T/C (dose: 100.0 mg/kg/injection, schedule: Q01DX005 (ip), vehicle: saline): 95 % of control | T/C (dose: 200.0 mg/kg/injection, schedule: Q01DX005 (ip), vehicle: saline): 102 % of control

O=S(=O)(Cl)C(Cl)(Cl)Cl
T/C (dose: 25.0 mg/kg/injection, schedule: Q01DX009 (ip), vehicle: saline sonified): 95 % of control | T/C (dose: 50.0 mg/kg/injection, schedule: Q01DX009 (ip), vehicle: saline sonified): 100 % of control | T/C (dose: 100.0 mg/kg/injection, schedule: Q01DX009 (ip), vehicle: saline sonified): 86 % of control

[Cl][Pt+2][Cl].[NH-]C1CCCC2CCC[N-]C12 (stereo not given)
T/C [4]: 154 % of control | T/C [5]: 174 % of control and 184 % of control | T/C [6]: 176 % of control

OC(CNc1ccccc1Cl)COc1ccc(Cl)cc1Cl (stereo not given)
T/C [4]: 94 % of control | T/C [7]: 95 % of control | T/C [5]: 106 % of control

CCCC(NC(=O)C(F)(F)F)C(=O)O (stereo not given)
T/C [4]: 91 % of control | T/C [7]: 93 % of control | T/C [5]: 106 % of control

Cc1c(N)nc([C@H](CC(N)=O)NC[C@H](N)C(N)=O)nc1C(=O)N[C@H](C(=O)N[C@H](C)[C@@H](O)[C@H](C)C(=O)N[C@H](C(=O)NCCc1nc(-c2nc(C(=O)NCCC[S+](C)C)cs2)cs1)[C@@H](C)O)C(OC1OC(CO)C(O)C(O)C1OC1OC(CO)C(O)C(OC(N)=O)C1O)c1cnc[nH]1 (stereo not given in full)
T/C (dose: 3.13 mg/kg/injection, schedule: Q01DX009 (ip), vehicle: Klucel (hydroxypropylcellulose) (HPC)): 121 % of control | T/C (dose: 3.5 mg/kg/injection, schedule: Q01DX009 (ip), vehicle: saline): 100 % of control | T/C (dose: 3.6 mg/kg/injection, schedule: Q01DX009 (ip), vehicle: saline): 117 % of control | T/C (dose: 4.0 mg/kg/injection, schedule: Q04DX003 (ip), vehicle: saline): 115 % of control | T/C (dose: 5.3 mg/kg/injection, schedule: Q01DX009 (ip), vehicle: saline): 107 % of control and 114 % of control | T/C (dose: 6.25 mg/kg/injection, schedule: Q01DX009 (ip), vehicle: Klucel (hydroxypropylcellulose) (HPC)): 123 % of control | T/C (dose: 8.0 mg/kg/injection, schedule: Q04DX003 (ip), vehicle: saline): 122 % of control | T/C (dose: 12.0 mg/kg/injection, schedule: Q01DX009 (ip), vehicle: saline): 106 % of control and 121 % of control | T/C (dose: 12.5 mg/kg/injection, schedule: Q01DX009 (ip), vehicle: Klucel (hydroxypropylcellulose) (HPC)): 121 % of control | T/C (dose: 16.0 mg/kg/injection, schedule: Q04DX003 (ip), vehicle: saline): 121 % of control | T/C (dose: 25.0 mg/kg/injection, schedule: Q01DX009 (ip), vehicle: Klucel (hydroxypropylcellulose) (HPC)): 94 % of control

CC(C)C(NC(=O)OCc1ccccc1)C(=O)N(C(=O)NC1CCCCC1)C1CCCCC1 (stereo not given)
T/C [8]: 100 % of control | T/C (dose: 100.0 mg/kg/injection, schedule: Q01DX005 (ip), vehicle: Klucel (hydroxypropylcellulose) (HPC)): 95 % of control | T/C [9]: 98 % of control

Cc1ccc(NC(=O)C(=O)C(C#N)c2c(Cl)cccc2Cl)c(C)c1 (stereo not given)
T/C [1]: 102 % of control | T/C [2]: 105 % of control | T/C [3]: 105 % of control

CO[C@@]12[C@@H]3N[C@@H]3CN1C1=C(C(=O)C(NCC3CCCO3)=C(C)C1=O)[C@@H]2COC(N)=O (stereo not given in full)
T/C (dose: 1.56 mg/kg/injection, schedule: Q01DX005 (ip), vehicle: distilled water + Tween-80): 155 % of control | T/C (dose: 3.12 mg/kg/injection, schedule: Q01DX005 (ip), vehicle: distilled water + Tween-80): 194 % of control | T/C (dose: 6.25 mg/kg/injection, schedule: Q01DX005 (ip), vehicle: distilled water + Tween-80): 198 % of control and 241 % of control | T/C (dose: 12.5 mg/kg/injection, schedule: Q01DX001 (ip), vehicle: distilled water + Tween-80): 158 % of control | T/C (dose: 12.5 mg/kg/injection, schedule: Q01DX005 (ip), vehicle: distilled water + Tween-80): 223 % of control and 225 % of control | T/C (dose: 25.0 mg/kg/injection, schedule: Q01DX001 (ip), vehicle: distilled water + Tween-80): 165 % of control | T/C (dose: 25.0 mg/kg/injection, schedule: Q01DX005 (ip), vehicle: distilled water + Tween-80): 100 % of control and 207 % of control | T/C (dose: 50.0 mg/kg/injection, schedule: Q01DX001 (ip), vehicle: distilled water + Tween-80): 203 % of control

CCCCCNS(=O)(=O)c1ccc(C)cc1
T/C (dose: 50.0 mg/kg/injection, schedule: Q01DX009 (ip), vehicle: saline + alcohol): 107 % of control | T/C (dose: 100.0 mg/kg/injection, schedule: Q01DX009 (ip), vehicle: saline + alcohol): 107 % of control | T/C (dose: 200.0 mg/kg/injection, schedule: Q01DX009 (ip), vehicle: saline + alcohol): 118 % of control | T/C (dose: 400.0 mg/kg/injection, schedule: Q01DX009 (ip), vehicle: saline + alcohol): 101 % of control

O=NNc1ccc(Sc2ccc3ccccc3c2)cn1
T/C (dose: 3.12 mg/kg/injection, schedule: Q01DX009 (ip), vehicle: saline): 114 % of control and 122 % of control | T/C (dose: 6.25 mg/kg/injection, schedule: Q01DX009 (ip), vehicle: saline): 120 % of control | T/C (dose: 12.5 mg/kg/injection, schedule: Q01DX009 (ip), vehicle: saline): 114 % of control

CN1N=C(c2ccccc2)N=P12N=C(c1ccccc1)NN2C (stereo not given)
T/C (dose: 60.0 mg/kg/injection, schedule: Q01DX005 (ip), vehicle: saline): 94 % of control | T/C (dose: 120.0 mg/kg/injection, schedule: Q01DX005 (ip), vehicle: saline): 102 % of control | T/C (dose: 240.0 mg/kg/injection, schedule: Q01DX005 (ip), vehicle: saline): 103 % of control

Cc1cc(N/N=C/c2ccccn2)nc2c(C)cccc12
T/C [1]: 90 % of control | T/C [2]: 91 % of control | T/C [3]: 100 % of control

COc1cc([C@@H]2c3cc4c(cc3[C@H](O)[C@H]3COC(=O)[C@H]23)OCO4)cc(OC)c1OC
T/C (dose: 0.5 mg/kg/injection, schedule: Q01DX005 (ip), vehicle: Klucel (hydroxypropylcellulose) (HPC)): 121 % of control | T/C (dose: 1.0 mg/kg/injection, schedule: Q01DX005 (ip), vehicle: Klucel (hydroxypropylcellulose) (HPC)): 117 % of control | T/C (dose: 1.0 mg/kg/injection, schedule: Q01DX005 (ip), vehicle: saline with Tween-80): 118 % of control | T/C (dose: 2.0 mg/kg/injection, schedule: Q01DX005 (ip), vehicle: saline with Tween-80): 121 % of control | T/C (dose: 8.0 mg/kg/injection, schedule: Q01DX005 (ip), vehicle: Klucel (hydroxypropylcellulose) (HPC)): 152 % of control

N#C/C(=C1C=C(Br)/C(=N\O)C=C\1Cl)c1cccc2ccccc12
T/C [4]: 103 % of control | T/C [7]: 102 % of control | T/C [5]: 102 % of control | T/C [6]: 115 % of control

CCCCCCCC/C=C/CCCCCCCC(=O)NCCCN (tested in a mixture with another compound)
T/C (dose: 25.0 mg/kg/injection, schedule: Q04DX002 (ip), vehicle: saline): 104 % of control | T/C (dose: 50.0 mg/kg/injection, schedule: Q04DX002 (ip), vehicle: saline): 103 % of control

Nc1c(C(=O)O)[nH]c(=O)[nH]c1=O
T/C (dose: 12.5 mg/kg/injection, schedule: Q01DX009 (ip), vehicle: saline with Tween-80): 119 % of control | T/C [10]: 119 % of control | T/C [4]: 120 % of control | T/C [7]: 118 % of control

Nc1nnc(-c2ccc(-c3nnc(N)o3)cc2)o1
T/C [11]: 98 % of control | T/C [12]: 100 % of control | T/C [13]: 100 % of control

O=c1[nH]c(=O)n(C2CC(O)C(CS)O2)cc1F (stereo not given)
T/C [8]: 115 % of control | T/C [9]: 150 % of control and 159 % of control | T/C (dose: 400.0 mg/kg/injection, schedule: Q01DX005 (ip), vehicle: Klucel (hydroxypropylcellulose) (HPC)): 186 % of control

COC(=O)C1CC2CCCCC2CC1OC(C)=O (stereo not given)
T/C [10]: 96 % of control | T/C [4]: 101 % of control and 111 % of control | T/C [7]: 106 % of control and 112 % of control and 121 % of control | T/C [5]: 99 % of control and 110 % of control and 121 % of control

[Cl][Hg][CH]1CCCC2OC(C(Cl)(Cl)Cl)OC21 (stereo not given)
T/C (dose: 3.13 mg/kg/injection, schedule: Q01DX001 (ip), vehicle: saline with Tween-80): 113 % of control | T/C (dose: 6.25 mg/kg/injection, schedule: Q01DX001 (ip), vehicle: saline with Tween-80): 97 % of control | T/C (dose: 12.5 mg/kg/injection, schedule: Q01DX001 (ip), vehicle: saline with Tween-80): 94 % of control

N=C(N)SCc1ccc(C(=O)NN2C(=O)c3ccccc3C2=O)cc1
T/C [4]: 92 % of control | T/C [7]: 92 % of control | T/C [5]: 97 % of control

NC(=O)c1csc([C@@H](O)Cc2ccccc2)n1
T/C [11]: 105 % of control | T/C [12]: 106 % of control | T/C [13]: 106 % of control
